Results as given in patent US8945061B2, “Otic formulations, methods and devices” (Entrx LLC, priority 2012, dated 2015).
In brackets after ≈: the same amount, converted by molar mass.

How the values were obtained:
[1] = test system: 22 Candida spp. and 10 Aspergillus spp.; conditions: all yeasts and moulds tested; judged from high MICs
fungus and bacteria = conditions: published literature; cited from earlier work
A. niger = conditions: n=5 strains, 48 hours, prominent growth reduction endpoint
C. krusei = conditions: n=5 strains, 48 hours, prominent growth reduction endpoint
C. glabrata = conditions: n=5 strains, 48 hours, prominent growth reduction endpoint
C. albicans = conditions: n=5 strains, 48 hours, prominent growth reduction endpoint
C. tropicalis = conditions: n=5 strains, 48 hours, prominent growth reduction endpoint
C. parapsilosis = conditions: n=1 strain, 48 hours, prominent growth reduction endpoint
Staphlococcus aureus = conditions: cited from earlier work
C. lusitaniae = conditions: n=1 strain, 48 hours, prominent growth reduction endpoint
Pseudomonas = conditions: cited from earlier work
A. fumigatus = conditions: n=5 strains, 48 hours, prominent growth reduction endpoint

O=C(O)c1cn(C2CC2)c2cc(N3CCNCC3)c(F)cc2c1=O [CIPRO, ciprofloxacin]
antifungal activity on its own [1]: no antifungal activity on its own

Cc1cccc(N(C)C(=S)Oc2ccc3ccccc3c2)c1 [tolnaftate]
Spectrum of Efficacy (fungus and bacteria): Fungistatic for dermatophytes and Tinea Versicoior

C[C@@H]1[C@H](O)[C@@H](C)/C=C/C=C/CC/C=C/C=C/C=C/C=C/C(O[C@H]2O[C@H](C)[C@@H](O)[C@H](N)[C@@H]2O)CC2O[C@](O)(CC(O)C(O)CCC(O)CC(O)CC(O)CC(=O)O[C@H]1C)CC(O)C2C(=O)O (some centres unmarked) [Nystatin, nystatin]
Spectrum of Efficacy (fungus and bacteria): primarily fungistatic at low concentrations against biphasic

Clc1ccccc1C(c1ccccc1)(c1ccccc1)n1ccnc1 [CTZ, clotrimazole]
MIC range (A. niger): 0.5 to 1 µg/mL | MIC range (C. krusei): 0.06 to 0.125 µg/mL | MIC range (C. glabrata): 0.25 to 1 µg/mL | Spectrum of Efficacy (fungus and bacteria): Aspergillus fiavus, Aspergilius fumigatus, Blastomyces | MIC range (C. albicans): ≦0.015 mcg/ml | MIC range (C. tropicalis): 0.06 to 2 µg/mL | MIC range (C. parapsilosis): 0.06 µg/mL (≈ 0.174 µM) | antibacterial activity (Staphlococcus aureus): demonstrated antibacterial activity | MIC range (C. lusitaniae): ≦0.015 mcg/ml | antibacterial activity (Pseudomonas): demonstrated antibacterial activity | MIC range (A. fumigatus): 0.25 to 0.5 µg/mL
